From PubChem BioAssay AID1508591

conditions: rat; liver microsomes; pH 7.4; 15.0 min; 1.0 µM

Row | SMILES | half-life
1 | Cc1ccc(S(=O)(=O)Nc2cnccc2C(=O)Nc2nc(-c3ccc(C)c(C)c3)cs2)cc1 | 2.1 min
2 | COc1cccc(C(=O)Nc2nc(-c3nnn(-c4cccc(Cl)c4C)c3C)ns2)c1 | 18.6 min
3 | CC(=O)c1cccc(-c2csc(N3CCC(C(N)=O)CC3)n2)c1 | 2.21 min
4 | Clc1cccc(COc2cncc(N3CCNCC3)n2)c1 | 2.55 min
5 | COc1ccc(OCc2ccc(-c3nc(C#N)c(NC(C)c4ccccc4)o3)o2)cc1 (centres undefined) | 4.14 min
6 | O=C(Nc1ccccc1)C1CC(=O)N(c2n[nH]c3cc(Br)ccc23)C1 (centres undefined) | > 30 min
7 | CCc1ccc(NC(=O)c2[nH]c(C)c(C(C)=O)c2C)cc1S(=O)(=O)Nc1cccc(C#N)c1 | 6.1 min
8 | O=C(Nc1ccc(S(=O)(=O)Nc2nccs2)cc1)c1cc(-c2ccccc2)nc2ccccc12 | > 30 min
9 | CC1CCC(NC(=O)c2ccc3c(c2)N(Cc2ccccc2F)C(=O)c2ccccc2S3)CC1 (centres undefined) | 2.12 min
10 | O=C(Nc1ccc(C(=O)Nc2nccs2)cc1)c1ccc2ccccc2c1 | 23 min
11 | CCN(c1cc(C#CCN2CCOCC2)cc(C(=O)NCc2c(C)cc(C)[nH]c2=O)c1C)C1CCC(N(C)CCOC)CC1 (centres undefined) | > 30 min
12 | CCc1cccc(NC(=O)c2c(C)oc3nc(C)nc(N4CCCC4)c23)c1 | 1.41 min
13 | CSc1nnc2c3ccccc3n(CCc3ccccc3)c2n1 | 1.69 min
14 | CCCN(CCC)CCc1cccc2c1CC(=O)N2 | 2.96 min
15 | O=C(NCc1ccccc1)C1CCN(c2nc(-c3ccc(Br)cc3)cs2)CC1 | 1.75 min
16 | Fc1ccc(Nc2nc(Nc3ccncc3)nc3ccccc23)cc1F | > 30 min
17 | Cc1cnc(-c2ccccc2C(F)F)nc1NCc1ccc(-c2cccnc2)cc1 | 8.1 min
18 | COc1ccc(-c2nc3ccccc3c(=O)n2Cc2ccccc2)cc1COc1ccc(NC(C)=O)cc1 | 3.16 min
19 | COc1ccc(-c2csc(C3=C(O)CN(Cc4ccc(Cl)cc4)C3=N)n2)cc1OC | 12 min
20 | CC(=O)c1c(C)oc2ccc(N(C(=O)Oc3ccccc3)S(=O)(=O)c3ccccc3)cc12 | 1.48 min
21 | COc1ccc(CNC(=O)Cn2nc3c(cc2=O)CCCC3)cc1 | > 30 min
22 | Cc1ccc(NC(=O)CSc2ncc(S(=O)(=O)c3ccc(C(C)C)cc3)c(=O)[nH]2)cc1C | 4.98 min
23 | NC(=O)C1CCN(c2nc(-c3cccc(C(F)(F)F)c3)cs2)CC1 | 1.99 min
24 | O=C(Nc1cccc(C(F)(F)F)c1)C1=CCN(Cc2ccc(F)cc2)CC1 | 3.4 min
25 | Cc1cccc(-n2cnc3cc(C(=O)N4CCCC(C)C4)ccc32)c1 (centres undefined) | 2.5 min
26 | Cc1noc(C)c1C(=O)N1CCC2(CCCN(Cc3ccccc3)C2)CC1 | 7.2 min

Row | SMILES | half-life
27 | O=S(=O)(Nc1cccc2cccnc12)c1ccc(NCc2ccc(Br)cc2O)cc1 | 2.4 min
28 | OCc1ccc(-c2cc3c(ccn3Cc3cccnc3)c(C3=CCOCC3)n2)cc1 | 4.89 min
29 | O=C(Nc1nc(-c2ccccc2)cs1)c1ccncc1NS(=O)(=O)c1ccc(C(F)(F)F)cc1 | 20 min
30 | Cc1ccc(NS(=O)(=O)c2cc3c(cc2N[C@H](C)CO)NC(=O)CC3)cc1C | 1.71 min
31 | O=C(Nc1nnc(-c2cccs2)o1)c1ccc(Cl)cc1 | 2.9 min
32 | C=Cc1ccc(C(=O)N2CCCC(CCC(=O)N3CCN(c4ccccn4)CC3)C2)cc1 (centres undefined) | 1.5 min
33 | O=C1CCCC2=C1C(c1ccccc1Cl)N=C(Nc1nc3ccccc3o1)N2 (centres undefined) | 9.38 min
34 | CCN(c1ccccc1)S(=O)(=O)c1c(C)nc2scc(C)n2c1=O | 1.7 min
35 | OC1(c2ccc(Cl)cc2)CCN(Cc2c[nH]c3ccccc23)CC1 | 3.89 min
36 | Cc1cc(C)c(CNC(=O)c2nc(-c3ccc(F)cc3)cc3c2ccn3C(C)C)c(=O)[nH]1 | 7.89 min
37 | COc1cc2cc(CN3CCC(N(C)C)C3)c(-c3cccc(Cl)c3)nc2cc1OC (centres undefined) | 23.1 min
38 | CNC(=O)c1ccc(-c2cnc3cnc(C(=O)N(C)c4ccc(Cl)cc4)cn23)cc1 | > 30 min
39 | COc1ccc(OC)c(-c2nc3c(C#N)c[nH]n3c2NC2CCCCC2)c1 | 4.2 min
40 | NC(=O)N1CCN(c2nc(-c3ccc(Br)cc3)cs2)CC1 | > 30 min
41 | O=C1c2ccccc2C2=Nc3ccccc3SC(c3ccc(Cl)cc3)C12 (centres undefined) | 2.96 min
42 | CN1C(=O)c2ccccc2[S@](=O)c2ccc(C(=O)NCCc3cccs3)cc21 | 7.2 min
43 | COc1cc(-c2nc(-c3ccccc3)c(-c3cccs3)[nH]2)cc(OC)c1O | > 30 min
44 | Fc1cc(Nc2nc(-c3ccncc3)nc3ccccc23)ccc1N1CCNCC1 | > 30 min
45 | CC(=O)NCc1ccc(-c2csc(Nc3cc(C)cc(C)c3)n2)o1 | > 30 min
46 | NC[C@H](O)c1ccc(O)c(O)c1 | 13.4 min
47 | Cc1cn2nc(-c3nc(C4CCCN(C(=O)c5ccccc5)C4)no3)cc2c(=O)[nH]1 (centres undefined) | 13.6 min
48 | Cc1ccc(S(=O)(=O)Nc2cnccc2C(=O)NCc2ccccc2)cc1 | 5.9 min
49 | CCOc1ccccc1N(CC(=O)N1CCOCC1)S(=O)(=O)c1ccc(SC)cc1 | 1.45 min
50 | Cc1ccc(S(=O)(=O)Nc2ccc(OC(F)(F)F)cc2C(=O)Nc2nc(-c3ccccc3)cs2)cc1 | 24 min
51 | Nc1ncnc(N2CCc3ccccc32)c1[N+](=O)[O-] | 8.6 min
52 | COc1ccccc1N1CCN(CCN(C(=O)c2ccc(F)cc2)c2ccccn2)CC1 | 2.02 min

Row | SMILES | half-life
53 | Cc1ccc(CNCc2cn[nH]c2-c2ccc(C)cc2)cc1 | 1.34 min
54 | Cc1cc(-c2nnc3n2CCCCC3)c(C)n1-c1ccc(C(F)(F)F)cc1 | 2.1 min
55 | Cn1cnc(S(=O)(=O)Nc2cnccc2C(=O)Nc2nc(-c3ccccc3)cs2)c1 | > 30 min
56 | c1ccc(CNc2cc3c(cn2)CN(Cc2cccnc2)CCN3)cc1 | 15 min
57 | CC1=C(C(=O)Nc2nnc(-c3ccccc3)s2)C(c2[nH]ncc2Cl)N=C(Nc2nc3ccccc3o2)N1 (centres undefined) | 11 min
58 | CN(C)c1ccc(CN2CCNc3cc(Nc4ccccc4)ncc3C2)cc1 | 2.01 min
59 | COc1cccc(C(=O)Nc2nnc(S(=O)(=O)N3CCOCC3)s2)c1 | > 30 min
60 | COc1ccc(NS(=O)(=O)c2ccc(C)cc2)cc1C(=O)Nc1nc(-c2ccccc2)cs1 | 12 min
61 | Clc1ccccc1CSc1nc2ncc(Br)cc2[nH]1 | 6.5 min
62 | COc1ccccc1CNC(=O)CCCn1nc(C)c2c(C)n(-c3ccc(C)cc3)nc2c1=O | 3.45 min
63 | Cn1c(=O)c2[nH]c(=O)[nH]c2n(C)c1=O | > 30 min
64 | COc1ccc(C2=Nn3c([n+](C)c4ccccc43)SC2)cc1 | > 30 min
65 | CC(C)c1ccc(OCc2nc3c(n2Cc2ccccc2)C(=O)N(CC2CCOCC2)CCN3)cc1 | 1.68 min
66 | COc1cccc(CNc2ccc(S(=O)(=O)Nc3ccc(C)nc3)cc2)c1O | 16 min
67 | CCc1ccc(NC(=O)c2[nH]c(C)c(C(C)=O)c2C)cc1S(=O)(=O)Nc1ccc(Br)cc1 | 23 min
68 | NC(=O)C1CCN(c2ncc(-c3cccc(N4CCCC4)c3)s2)CC1 | 15 min
69 | Oc1cccc2nc3ccccc3nc12 | 8.9 min
70 | O=C(Nc1ccccc1)C1CCN(c2nc(-c3ccc(Br)cc3)cs2)CC1 | 1.53 min
71 | COC1C(OC(=O)c2ccc(C)[nH]2)C(O)C(Oc2ccc3c(O)c(NC(=O)c4ccc(O)c(CC=C(C)C)c4)c(=O)oc3c2Cl)OC1(C)C (centres undefined) | 28.3 min
72 | Nc1nc2c(s1)C(c1ccccc1OCc1ccccc1Cl)CC(=O)N2 (centres undefined) | 6.28 min
73 | Cc1cc(NS(=O)(=O)c2ccc(C(=O)NCc3ccc(Cl)c(Cl)c3)cc2)no1 | > 30 min
74 | CC(=O)Nc1ccc(C(=O)Nc2ccccc2N)cc1 | > 30 min
75 | Cc1ccnc(NC(=S)N2CCN(c3ccc(C(F)(F)F)cc3[N+](=O)[O-])CC2)c1 | > 30 min
76 | O=C(c1ccccc1)N1CCN(c2nc(-c3ccc(Br)cc3)cs2)CC1 | > 30 min
77 | O=C(Nc1nnc(C2CCCCC2)s1)c1ccc(Br)s1 | > 30 min
78 | COc1cccc(CNc2ccc(S(=O)(=O)Nc3nc(C)cs3)cc2)c1O | > 30 min

Row | SMILES | half-life
79 | Cc1onc(-c2ccc(F)cc2)c1COc1ccc(C(=O)N2CCS(=O)(=O)CC2)cn1 | 9.64 min
80 | Cc1cccc(-c2csc(N3CCC(C(N)=O)CC3)n2)c1 | 1.66 min
81 | Cc1ccc(CNc2ccccc2C(=O)Nc2nc(-c3ccccc3)cs2)cc1 | > 30 min
82 | FC(F)(F)c1cccc(N2CCN(C(=S)Nc3cc4ccccc4cn3)CC2)c1 | > 30 min
83 | COc1ccc(-c2ccc3c(N4CCOC[C@@H]4C)nc(N4CCOC[C@@H]4C)nc3n2)cc1CO | > 30 min
84 | CC1Oc2cc3c(-c4c(O)cc(O)c5c(O)c6c(cc45)OC(C)C(C)C6=O)c(O)cc(O)c3c(O)c2C(=O)C1C (centres undefined) | > 30 min
85 | Cc1ccc(S(=O)(=O)Nc2cnccc2C(=O)Nc2ccc(S(=O)(=O)Nc3nccs3)cc2)cc1 | 5.3 min
86 | COc1ccnc(NC(=S)N2CCN(c3ccc(Cl)c(Cl)c3)CC2)c1 | 20 min
87 | Cc1cccc(C)c1C(=O)Nc1cccc([S+](=O)([O-])N(C)C)c1 | 8 min
88 | CCn1c(C(=O)NCCc2ccc(OC)cc2)cc2sccc21 | 1.9 min
89 | COc1cccc(-c2csc(NC(=O)c3ccncc3NS(=O)(=O)c3ccc(C)cc3)n2)c1 | 1.85 min
90 | COc1ccc(-c2cc3nccn3c(Nc3ncccc3C(N)=O)n2)cc1OC | > 30 min
91 | COc1ccc(-c2ccc3nc(-c4cc(C)cc(C)c4)oc3c2)c(OC)c1OC | > 30 min
92 | CCCOC(=O)c1ccc(Oc2c(-c3ccc(O)cc3O)n[nH]c2C)cc1 | 3.04 min
93 | COc1cc(CNCCO)cc(Cl)c1OCc1ccc(Cl)cc1Cl | 25.5 min
94 | O=C(Nc1ccc2oc(-c3cccnc3)nc2c1)c1ccc(-c2cccc(Cl)c2)o1 | > 30 min
95 | CC1=C(C(=O)Nc2nncs2)C(c2ccccc2Br)N=C(Nc2nc3ccccc3o2)N1 (centres undefined) | > 30 min
96 | Cc1nc2sccn2c(=O)c1S(=O)(=O)Nc1ccc(N2CCN(S(C)(=O)=O)CC2)cc1 | > 30 min
97 | O=C(Nc1nc(-c2ccc(F)cc2)cs1)c1ccncc1NS(=O)(=O)c1ccccc1Cl | > 30 min
98 | O=C(NCc1ccncc1)c1nc(-c2cccnc2)c2cnccn12 | > 30 min
99 | O=C1CCCC2=C1C1(CCSCC1)N=C(Nc1nc3ccccc3o1)N2 | 2.3 min
100 | CCCCn1cnc2cc(NCc3ccc(OCC)cc3)ccc21 | 10.3 min
101 | O=C(Nc1nc(-c2ccccn2)cs1)c1cccc(-n2cnnn2)c1 | > 30 min
102 | CC(C)(C)OC(=O)NC1CCN(c2nc(-c3ccc(Br)cc3)cs2)CC1 | > 30 min
103 | COc1ccc(-c2cc(-c3cccc4[nH]ncc34)cn3cncc23)cn1 | 9.28 min
104 | Cc1c(C)n(Cc2ccc(-c3ccccc3C(=O)O)cc2)c2ccc(C(=O)N[C@@H](C)c3ccc([N+](=O)[O-])cc3)cc12 | > 30 min
